Values after ≈ are worked out from the molar mass of the structure shown.
Assays:
plasma GH = assay: suppression of plasma GH after rGHRH challenge in rat; format: in vivo
Procedure: (§1) The in vivo pharmacological efficacy of paltusotine has been examined in rat and dog. In the rat, acute efficacy was evaluated by examining the suppression of plasma GH in response to a challenge with rat growth hormone releasing hormone (rGHRH). […] The effects of chronic, oral, 14-day administration of paltusotine were evaluated by measuring the sustained suppression of IGF-1 in the rat.

plasma IGF-1 = assay: chronic oral 14-day administration, suppression of IGF-1 in rat; format: in vivo
Procedure: as §1

[1] = SAD/MAD oral administration in healthy adult male subjects; format: in vivo, human; settings: 1.25 to 20 mg (SAD) and 5 to 30 mg (MAD)
Procedure: A dose of 20 mg paltusotine was chosen for the oral dose in the ADME study as a possible therapeutic dose estimated by PD activities of suppression of growth hormone releasing hormone (GHRH) stimulated GH secretion.

[2] = Phase 1 mass balance (ADME) study, single oral 20 mg [14C]-paltusotine, healthy male volunteers; format: in vivo, human
Procedure: This was a Phase I, open-label, single-dose study with a primary objective to characterize the absorption, distribution, metabolism, excretion, and mass balance of a single oral dose of 20 mg paltusotine containing 3.0 MBq (80 μCi) of [^14C]-labeled paltusotine in healthy male subjects.
Subjects received a single oral dose of 20 mg paltusotine as an oral solution containing 3.0 MBq (80 μCi) of radioactivity on Day 1. For oral dosing, the total volume ingested by the subject, including the study drug (10 mL), the rinse solutions (a total of 100 mL; 2 drug vial rinses with 50 mL of water per rinse), and tap water (130 mL), was 240 mL. The subjects had to ingest all solutions in the upright position within 2 minutes between 8 AM and 11 AM after an overnight fast of at least 10 hours. Fasting continued for a period of 4 hours after oral drug administration. The time of oral dosing administration was recorded, and the empty study drug vials were measured for residual radioactivity.
Blood samples were taken for the analysis of unlabeled paltusotine and [^14C]-paltusotine concentrations, and metabolite profiling. Blood samples for analysis of pharmacokinetic parameters of paltusotine in plasma, quantification of total radioactivity in blood and plasma, and metabolite profiling were collected at predose and 0.25, 0.5, 0.75, 1, 1.5, 2, 3, 4, 8, 12, 24, 48, 72, 120, and 168 hours postdose (and every 48 hours thereafter, if needed, to assess radioactivity).
Urine was collected for the analysis of total radioactivity, for quick counts of total radioactivity, and for metabolite profiling. The subjects were instructed to urinate completely before study drug administration and at the end of each collection interval. A baseline urine sample was collected within 12 hours prior to each study drug administration. Urine was collected for quantification of total radioactivity and metabolite profiling at predose, 3 intervals on Day 1 (at 0-4, 4-8, and 8-24 hours postdose), and every 24 hours thereafter until discharge criteria were met.
All fecal excretions were collected for the analysis of total radioactivity, for quick counts of total radioactivity, and for metabolite profiling. A baseline fecal sample was collected within 48 hours prior to study drug administration and could be collected at home. The baseline sample was taken from the last bowel movement before study drug intake. Feces were collected for quantification of total radioactivity and metabolite profiling at predose and in 24-hour intervals until discharge criteria were met.
Analysis of paltusotine in plasma was performed by Q2 Solutions (IQVIA, Itaca, NY, USA) using a validated liquid chromatography-tandem mass spectrometry (LC-MS/MS) method. The lower limit of quantitation (LLOQ) for paltusotine in plasma was 0.5 ng/mL.
Analysis of total ^14C radioactivity in plasma, whole blood, urine, and feces was performed at the bioanalytic laboratory of PRA Heath Sciences via a validated liquid scintillation counting method. The LLOQ for total reactivity was 3.36 ng-eq/mL in plasma and 5.6 ng-eq/mL in whole blood.
Metabolite profiling of plasma, urine, and feces was performed at WuXi AppTec (Cranbury, NJ, USA). For plasma, samples were pooled by timepoint (0.5, 1, 1.5, 2, 4, 8, 12, and 24 hours postdose) for metabolite profiling. In addition, plasma samples were pooled by participant across timepoints (0-48 hours) using the Hamilton method and analyzed to determine the quantitative profile of radiolabeled components. Prior to radio-profiling, plasma samples were extracted using solid phase extraction.
For urine and feces, samples were pooled by timepoint (0-8, 8-24, and 24-72 hours postdose). Prior to radio-profiling, urine samples were centrifuged to remove solids, and fecal homogenates were extracted with acetonitrile. Plasma and fecal extracts and urine supernatants were subjected to LC separation and fraction collection. […]

[3] = system: human liver microsomes and recombinant CYP450s; assay: CYP phenotyping, in vitro metabolism; format: in vitro ADME
[4] = target: human somatostatin receptor 2 (SST2) (Homo sapiens, UniProt P30874); settings: read-out: EC50, inhibition of cAMP accumulation via SST2 activation; average, in vitro
Sequence of human somatostatin receptor 2 (SST2) (P30874 whole entry): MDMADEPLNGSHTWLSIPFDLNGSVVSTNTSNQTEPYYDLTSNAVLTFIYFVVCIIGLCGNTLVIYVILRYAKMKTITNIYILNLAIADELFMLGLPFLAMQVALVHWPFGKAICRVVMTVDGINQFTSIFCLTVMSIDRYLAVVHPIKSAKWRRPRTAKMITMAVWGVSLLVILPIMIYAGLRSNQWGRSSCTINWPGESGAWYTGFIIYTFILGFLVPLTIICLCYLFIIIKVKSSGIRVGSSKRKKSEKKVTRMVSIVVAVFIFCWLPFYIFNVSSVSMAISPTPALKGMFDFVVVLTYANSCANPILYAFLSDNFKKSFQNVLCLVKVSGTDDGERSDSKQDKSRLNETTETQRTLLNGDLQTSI

[5] = system: other human somatostatin receptors
[6] = scaled from paltusotine and excretory metabolites

SMILES: N#Cc1cccc(-c2ccc3ncc(-c4cc(F)cc(F)c4)c(N4CCC(N)CC4)c3c2)c1O [paltusotine, 3-[4-(4-amino-1-piperidyl)-3-(3,5-difluorophenyl)-6-quinolyl]-2-hydroxybenzonitrile]
- EC50 (plasma GH; Rattus norvegicus, po, read-out: plasma EC50 for GH suppression): 0.011 µg/mL (≈ 0.0241 µM)
- doses that significantly and dose dependently suppressed GH relative to vehicle (plasma GH; oral, acute, rGHRH challenge): ≥ 3 mg/kg
- dose efficacious in suppressing plasma IGF-1 for up to 14 days (plasma IGF-1): > 10 mg/kg/day
- AUC dose dependence [1]: increased dose-dependently
- component in feces ([2]; feces): 39.7 % of the dose
- drug-related components detected in plasma ([2]; human plasma 0-48 h): the only drug-related component detected in human plasma (0-48 h) was paltusotine
- administered radioactivity recovered in the feces ([2]; human, in vivo): 90%
- administered radioactivity recovered in the urine ([2]; human, in vivo): 3.9%
- dose excreted in the feces by metabolic profiling of excreta ([2]; human, in vivo): approximately 84%
- total radioactivity excreted over 120 h ([2]; human, in vivo): 88 % of the administered dose
- glucuronidation pathway share of metabolic clearance [2, 6]: 27.9 % of the dose
- oxidative route share of metabolic clearance [2, 6]: 14.3%
- component in urine ([2]; urine): 1.33 % of dose
- unchanged paltusotine and metabolites excreted in urine ([2]; urine): < 4 % of the total administered radioactivity
- total mean recovery of administered radioactivity ([2]; urine and feces): 94%
- CYP enzymes catalyzing oxidative metabolism [3]: CYP3A4/5 catalyzes the oxidative metabolism of paltusotine with minor contribution of CYP2D6
- contribution of CYP-mediated metabolism ([3]; in vitro studies): ~16.8%
- EC50 [4]: 0.25 nM
- selectivity over other human somatostatin receptors [5]: > 4000 fold
